pEC50: −log10 of the molar value.

The assay relates to HCV 1b-377-neo replicon cells. Put plainly: HCV replicon assay, HCV 1b-377-neo replicon cells (1b FRET). In kind it is cell-based, Hepatitis C virus genotype 1b. To be noted: Hepatitis C virus, HCV 1b-377-neo replicon cells; HCV 1b genotype; read-out: EC50 range against HCV 1b (Table 2, Range). A digest of the protocol:
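Compounds were tested in genotype 1b subgenomic replicon cells carrying a neomycin marker, alongside a matched replicon line with an NS5A Y2065H substitution that confers resistance to a reference NS5A inhibitor.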
On to `COC(=O)N[C@H](C(=O)N1CCC[C@H]1c1nc(-c2ccc(-c3ccc(-c4c[nH]c([C@@H]5CCCN5C(=O)[C@@H](NC(=O)O[C@H]5CCOC5)C(C)C)n4)cc3)cc2)c[nH]1)C(C)C` [Example F54, (3S)-tetrahydro-3-furanyl ((1S)-1-(((2S)-2-(4-(4′-(2-((2S)-1-(N-(methoxycarbonyl)-L-valyl)-2-pyrrolidinyl)-1H-imidazol-4-yl)-4-biphenylyl)-1H-imidazol-2-yl)-1-pyrrolidinyl)carbonyl)-2-methylpropyl)carbamate], for which the pEC50 (commonly −log10 of the EC50, conventionally taken in molar units) is 9.00 to 12.00. For `COC(=O)N[C@H](C(=O)N1CCC[C@H]1c1ncc(-c2ccc(-c3ccc(-c4cnc([C@@H]5CCCN5C(=O)[C@H](NC(=O)OC)c5ccccc5)[nH]4)c(F)c3)cc2F)[nH]1)[C@H](C)OC` [Example D65, methyl ((1S,2R)-1-(((2S)-2-(5-(3,3′-difluoro-4′-(2-((2S)-1-((2R)-2-((methoxyearbonyl)amino)-2-phenylacetyl)-2-pyrrolidinyl)-1H-imidazol-5-yl)-4-biphenylyl)-1H-imidazol-2-yl)-1-pyrrolidinyl)carbonyl)-2-methoxypropyl) carbamate bis(trifluoroacetate)] the value was 9.00 to 12.00. Regarding `CCN(CC)[C@@H](C(=O)N1CCC[C@H]1c1ncc(-c2ccc(-c3ccc(-c4cnc([C@@H]5CCCN5C(=O)[C@@H](c5ccccc5)N5CCCC5)[nH]4)cc3)cc2)[nH]1)c1ccccc1` [Example 99, (1R)-N,N-diethyl-2-oxo-1-phenyl-2-((2S)-2-(5-(4′-(2-((2S)-1-((2R)-2-phenyl-2-(1-pyrrolidinyl)acetyl)-2-pyrrolidinyl)-1H-imidazol-5-yl)-4-biphenylyl)-1H-imidazol-2-yl)-1-pyrrolidinyl)ethanamine], the pEC50 was 9.00 to 12.00. `COC(=O)N[C@H](C(=O)N1[C@H](c2ncc(-c3ccc(-c4ccc(-c5cnc([C@@H]6C[C@@H]7C[C@@H]7N6C(=O)[C@@H](NC(=O)OC)C(C)C)[nH]5)cc4)cc3)[nH]2)C[C@@H]2C[C@@H]21)C(C)C` [Example M122, methyl ((1S)-1-(((1S,3S,5S)-3-(5-(4′-(2-((1S,3S,5S)-2-((2S)-2-((methoxycarbonyl)amino)-3-methylbutanoyl)-2-azabicyclo[3.1.0]hex-3-yl)-1H-imidazol-5-yl)-4-biphenylyl)-1H-imidazol-2-yl)-2-azabicyclo[3.1.0]hex-2-yl)carbonyl)-2-methylpropyl)carbamate]: the pEC50 was 7.00 to 9.00. For the compound `CN(C)[C@@H](C(=O)N1CCC[C@H]1c1ncc(-c2ccc(-c3ccc(-c4cnc([C@@H]5CCCN5C(=O)[C@@H](c5ccccc5)N5CCCCC5)[nH]4)cc3)cc2)[nH]1)c1ccccc1F` [Example 28-5, (1R)-1-(2-fluorophenyl)-N,N-dimethyl-2-oxo-2-((2S)-2-(5-(4′-(2-((2S)-1-((2R)-2-phenyl-2-(1-piperidinyl)acetyl)-2-pyrrolidinyl)-1H-imidazol-5-yl)-4-biphenylyl)-1H-imidazol-2-yl)-1-pyrrolidinyl)ethanamine], the pEC50 was 9.00 to 12.00. Turning to `COC(=O)N[C@@H](C(=O)N1CCC[C@H]1c1ncc(-c2ccc(-c3ccc(-c4cnc([C@@H]5CCCN5C(=O)C(c5ccsc5)N(C)C)[nH]4)cc3)cc2)[nH]1)c1ccccc1` (stereo partly drawn) [Example 84-47, methyl ((1R)-2-((2S)-2-(5-(4′-(2-((2S)-1-((dimethylamino)(3-thienyl)acetyl)-2-pyrrolidinyl)-1H-imidazol-5-yl)-4-biphenylyl)-1H-imidazol-2-yl)-1-pyrrolidinyl)-2-oxo-1-phenylethyl)carbamate], the pEC50 is 9.00 to 12.00. On to `CN(C)[C@@H](C(=O)N1CCC[C@H]1c1ncc(-c2ccc(-c3ccc(-c4cnc([C@@H]5CCCN5C(=O)[C@@H](c5ccccc5)N5CCCC5)[nH]4)cc3)cc2)[nH]1)c1ccccc1` [Example 90, (1R)-N,N-dimethyl-2-oxo-1-phenyl-2-((2S)-2-(5-(4′-(2-((2S)-1-((2R)-2-phenyl-2-(1-pyrrolidinyl)acetyl)-2-pyrrolidinyl)-1H-imidazol-5-yl)-4-biphenylyl)-1H-imidazol-2-yl)-1-pyrrolidinyl)ethanamine], for which the pEC50 is 9.00 to 12.00.

Source of the values: patent publication US8574563B2 (Bristol-Myers Squibb Company, priority 2006, dated 2013).
